Reference: patent US10835533B2, “1 -((3S,4R)-4-(3-fluorophenyl)-1-(2-methoxyethyl)pyrrolidin-3-yl)-3-(4-methyl-3-(2-methylpyrimidin-5-yl)-1-phenyl-1H-pyrazol-5-yl)urea as a TrkA kinase inhibitor” (Array BioPharma Inc., priority 2014, dated 2020)

How the values were obtained:
Assay in all cases: KinaseProfiler kinase profiling
Format in all cases: biochemical
Conditions in all cases: 10 μM, ATP near Km
Flt3 = molecular target: T1, Flt3 (Homo sapiens, UniProt P36888)
T1 construct: purchased Millipore, Inc. (KinaseProfiler service)
Procedure: (§1) Compound 1 was tested for off-target kinase activity at a concentration of 10 μM by Millipore, Inc. in their KinaseProfiler™ service against all the kinases available in their full kinase panel. Compound 1 was run in duplicate at a concentration of ATP near the Km for each individual kinase according to Millipore's specifications. Data are reported as percent of control (POC) and are the average of the two replicates.

IKKalpha = molecular target: T2, IKKalpha (Homo sapiens, UniProt O15111)
T2 construct: purchased Millipore, Inc. (KinaseProfiler service)
Procedure: as §1

CAMK2b = molecular target: T3, CAMK2b (Homo sapiens, UniProt Q13554)
T3 construct: purchased Millipore, Inc. (KinaseProfiler service)
Procedure: as §1

FGFR4 = molecular target: T4, FGFR4 (Homo sapiens, UniProt P22455)
T4 construct: purchased Millipore, Inc. (KinaseProfiler service)
T4 sequence (P22455 22-802): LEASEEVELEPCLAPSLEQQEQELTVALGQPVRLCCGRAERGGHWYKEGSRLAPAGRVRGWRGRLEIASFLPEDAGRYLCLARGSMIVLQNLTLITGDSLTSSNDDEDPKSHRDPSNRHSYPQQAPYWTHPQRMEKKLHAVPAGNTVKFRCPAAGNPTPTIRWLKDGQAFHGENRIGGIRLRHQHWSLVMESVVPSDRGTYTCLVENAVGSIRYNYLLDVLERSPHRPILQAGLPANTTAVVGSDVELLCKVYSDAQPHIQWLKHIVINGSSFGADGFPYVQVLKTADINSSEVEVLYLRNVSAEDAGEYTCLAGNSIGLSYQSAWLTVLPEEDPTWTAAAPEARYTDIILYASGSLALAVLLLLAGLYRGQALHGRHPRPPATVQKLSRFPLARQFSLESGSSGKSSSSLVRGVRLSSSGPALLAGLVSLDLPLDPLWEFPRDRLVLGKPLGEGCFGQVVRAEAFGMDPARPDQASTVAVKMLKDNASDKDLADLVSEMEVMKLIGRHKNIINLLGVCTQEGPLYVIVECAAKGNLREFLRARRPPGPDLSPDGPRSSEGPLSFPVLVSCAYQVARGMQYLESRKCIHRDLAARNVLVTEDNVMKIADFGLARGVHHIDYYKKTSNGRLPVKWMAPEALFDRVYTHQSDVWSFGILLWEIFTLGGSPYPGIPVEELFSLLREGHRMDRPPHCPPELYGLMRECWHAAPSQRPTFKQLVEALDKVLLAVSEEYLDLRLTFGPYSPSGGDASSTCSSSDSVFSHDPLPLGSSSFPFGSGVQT
Procedure: as §1

DDR2 = molecular target: T5, DDR2 (Homo sapiens, UniProt Q16832)
T5 construct: purchased Millipore, Inc. (KinaseProfiler service)
T5 sequence (Q16832 22-855): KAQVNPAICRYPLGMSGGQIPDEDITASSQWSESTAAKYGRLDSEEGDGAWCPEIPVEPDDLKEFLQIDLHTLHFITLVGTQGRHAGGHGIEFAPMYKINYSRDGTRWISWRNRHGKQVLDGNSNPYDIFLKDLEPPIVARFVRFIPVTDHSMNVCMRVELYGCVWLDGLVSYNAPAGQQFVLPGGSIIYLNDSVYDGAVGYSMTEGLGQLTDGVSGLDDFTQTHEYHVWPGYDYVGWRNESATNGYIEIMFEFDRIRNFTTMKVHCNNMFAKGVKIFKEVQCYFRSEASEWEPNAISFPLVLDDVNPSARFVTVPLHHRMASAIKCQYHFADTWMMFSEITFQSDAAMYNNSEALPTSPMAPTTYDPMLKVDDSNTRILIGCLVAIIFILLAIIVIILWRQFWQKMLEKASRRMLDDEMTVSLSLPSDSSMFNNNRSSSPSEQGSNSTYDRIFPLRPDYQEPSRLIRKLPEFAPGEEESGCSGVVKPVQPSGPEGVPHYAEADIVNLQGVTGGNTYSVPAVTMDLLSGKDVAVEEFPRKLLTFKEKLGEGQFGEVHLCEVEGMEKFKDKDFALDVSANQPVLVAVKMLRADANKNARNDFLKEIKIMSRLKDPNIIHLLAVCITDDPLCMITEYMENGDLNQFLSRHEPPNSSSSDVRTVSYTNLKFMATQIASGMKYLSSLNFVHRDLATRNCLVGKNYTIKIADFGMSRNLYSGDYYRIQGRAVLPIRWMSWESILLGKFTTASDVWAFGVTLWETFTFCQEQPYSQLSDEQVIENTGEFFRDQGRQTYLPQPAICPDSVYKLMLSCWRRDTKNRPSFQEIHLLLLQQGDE
Procedure: as §1

WNK3 = molecular target: T6, WNK3 (Homo sapiens, UniProt Q9BYP7)
T6 construct: purchased Millipore, Inc. (KinaseProfiler service)
Procedure: as §1

SIK = molecular target: T7, SIK (Homo sapiens, UniProt P57059)
T7 construct: purchased Millipore, Inc. (KinaseProfiler service)
Procedure: as §1

MST3 = molecular target: T8, MST3 (Homo sapiens, UniProt Q9Y6E0)
T8 construct: purchased Millipore, Inc. (KinaseProfiler service)
Procedure: as §1

MST2 = molecular target: T9, MST2 (Homo sapiens, UniProt Q13188)
T9 construct: purchased Millipore, Inc. (KinaseProfiler service)
T9 sequence (Q13188 whole entry): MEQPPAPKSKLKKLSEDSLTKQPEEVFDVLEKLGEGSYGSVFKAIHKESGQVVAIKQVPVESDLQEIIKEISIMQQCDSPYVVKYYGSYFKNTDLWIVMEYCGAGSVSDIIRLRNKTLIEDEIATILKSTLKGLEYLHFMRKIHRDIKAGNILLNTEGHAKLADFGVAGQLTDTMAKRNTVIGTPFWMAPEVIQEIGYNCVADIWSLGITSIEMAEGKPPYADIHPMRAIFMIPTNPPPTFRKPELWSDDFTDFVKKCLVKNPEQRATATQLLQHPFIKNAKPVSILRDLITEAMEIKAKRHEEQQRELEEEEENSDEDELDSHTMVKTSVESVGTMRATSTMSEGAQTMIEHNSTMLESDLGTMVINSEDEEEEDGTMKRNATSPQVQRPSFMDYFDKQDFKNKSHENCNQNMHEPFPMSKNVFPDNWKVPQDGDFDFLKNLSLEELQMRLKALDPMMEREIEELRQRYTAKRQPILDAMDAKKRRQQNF
Procedure: as §1

Tie2 = molecular target: T10, Tie2 (Homo sapiens, UniProt Q02763)
T10 construct: purchased Millipore, Inc. (KinaseProfiler service)
Procedure: as §1

CK1_y = tested on: CK1_y
Procedure: as §1

MSSK1 = molecular target: T11, MSSK1 (Homo sapiens, UniProt Q9UPE1)
T11 construct: purchased Millipore, Inc. (KinaseProfiler service)
T11 sequence (Q9UPE1 whole entry): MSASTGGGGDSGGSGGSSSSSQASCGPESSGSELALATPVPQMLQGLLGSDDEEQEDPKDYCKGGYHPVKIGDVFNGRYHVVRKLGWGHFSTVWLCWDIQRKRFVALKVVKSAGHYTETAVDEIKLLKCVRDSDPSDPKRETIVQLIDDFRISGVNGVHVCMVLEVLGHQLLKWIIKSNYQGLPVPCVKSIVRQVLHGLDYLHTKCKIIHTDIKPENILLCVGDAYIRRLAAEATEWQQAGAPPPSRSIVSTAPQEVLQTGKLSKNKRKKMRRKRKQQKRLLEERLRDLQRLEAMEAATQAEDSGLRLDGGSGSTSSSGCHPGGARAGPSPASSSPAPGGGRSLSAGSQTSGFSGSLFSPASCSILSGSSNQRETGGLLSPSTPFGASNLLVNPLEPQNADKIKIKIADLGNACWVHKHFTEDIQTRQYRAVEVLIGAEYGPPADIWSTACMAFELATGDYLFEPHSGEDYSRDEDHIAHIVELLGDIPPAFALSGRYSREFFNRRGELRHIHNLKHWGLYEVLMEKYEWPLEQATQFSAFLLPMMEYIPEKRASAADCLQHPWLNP
Procedure: as §1

Pim-1 = molecular target: T12, Pim-1 (Homo sapiens, UniProt P11309)
T12 construct: purchased Millipore, Inc. (KinaseProfiler service)
Procedure: as §1

MELK = molecular target: T13, MELK (Homo sapiens, UniProt Q14680)
T13 construct: purchased Millipore, Inc. (KinaseProfiler service)
Procedure: as §1

IRAK4 = molecular target: T14, IRAK4 (Homo sapiens, UniProt Q9NWZ3)
T14 construct: purchased Millipore, Inc. (KinaseProfiler service)
Procedure: as §1

p70S6K = molecular target: T15, p70S6K (Homo sapiens, UniProt P23443)
T15 construct: purchased Millipore, Inc. (KinaseProfiler service)
Procedure: as §1

Ron = molecular target: T16, Ron (Homo sapiens, UniProt Q04912)
T16 construct: purchased Millipore, Inc. (KinaseProfiler service)
Procedure: as §1

TSSK1 = molecular target: T17, TSSK1 (Homo sapiens, UniProt Q9BXA7)
T17 construct: purchased Millipore, Inc. (KinaseProfiler service)
Procedure: as §1

PKCgamma = molecular target: T18, PKCgamma (Homo sapiens, UniProt P05129)
T18 construct: purchased Millipore, Inc. (KinaseProfiler service)
Procedure: as §1

KIT = molecular target: T19, KIT (Homo sapiens, UniProt P10721)
T19 construct: purchased Millipore, Inc. (KinaseProfiler service)
Procedure: as §1

TNK2 = molecular target: T20, TNK2 (Homo sapiens, UniProt Q07912)
T20 construct: purchased Millipore, Inc. (KinaseProfiler service)
Procedure: as §1

AKT2 = molecular target: T21, AKT2 (Homo sapiens, UniProt P31751)
T21 construct: purchased Millipore, Inc. (KinaseProfiler service)
T21 sequence (P31751 whole entry): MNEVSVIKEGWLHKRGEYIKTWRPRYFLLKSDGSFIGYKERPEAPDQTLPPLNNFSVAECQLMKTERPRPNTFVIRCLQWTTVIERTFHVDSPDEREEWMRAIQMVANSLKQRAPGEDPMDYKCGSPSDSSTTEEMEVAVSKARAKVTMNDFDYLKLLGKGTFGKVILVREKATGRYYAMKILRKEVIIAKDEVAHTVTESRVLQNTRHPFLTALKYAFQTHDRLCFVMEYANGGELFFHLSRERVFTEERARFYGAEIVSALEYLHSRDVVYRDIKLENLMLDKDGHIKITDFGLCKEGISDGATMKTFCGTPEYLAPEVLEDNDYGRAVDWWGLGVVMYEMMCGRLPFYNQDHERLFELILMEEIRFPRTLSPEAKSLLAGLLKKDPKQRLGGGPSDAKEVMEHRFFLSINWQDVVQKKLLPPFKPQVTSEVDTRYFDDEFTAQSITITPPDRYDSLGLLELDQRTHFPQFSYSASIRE
Procedure: as §1

LOK = molecular target: T22, LOK (Homo sapiens, UniProt O94804)
T22 construct: purchased Millipore, Inc. (KinaseProfiler service)
T22 sequence (O94804 whole entry): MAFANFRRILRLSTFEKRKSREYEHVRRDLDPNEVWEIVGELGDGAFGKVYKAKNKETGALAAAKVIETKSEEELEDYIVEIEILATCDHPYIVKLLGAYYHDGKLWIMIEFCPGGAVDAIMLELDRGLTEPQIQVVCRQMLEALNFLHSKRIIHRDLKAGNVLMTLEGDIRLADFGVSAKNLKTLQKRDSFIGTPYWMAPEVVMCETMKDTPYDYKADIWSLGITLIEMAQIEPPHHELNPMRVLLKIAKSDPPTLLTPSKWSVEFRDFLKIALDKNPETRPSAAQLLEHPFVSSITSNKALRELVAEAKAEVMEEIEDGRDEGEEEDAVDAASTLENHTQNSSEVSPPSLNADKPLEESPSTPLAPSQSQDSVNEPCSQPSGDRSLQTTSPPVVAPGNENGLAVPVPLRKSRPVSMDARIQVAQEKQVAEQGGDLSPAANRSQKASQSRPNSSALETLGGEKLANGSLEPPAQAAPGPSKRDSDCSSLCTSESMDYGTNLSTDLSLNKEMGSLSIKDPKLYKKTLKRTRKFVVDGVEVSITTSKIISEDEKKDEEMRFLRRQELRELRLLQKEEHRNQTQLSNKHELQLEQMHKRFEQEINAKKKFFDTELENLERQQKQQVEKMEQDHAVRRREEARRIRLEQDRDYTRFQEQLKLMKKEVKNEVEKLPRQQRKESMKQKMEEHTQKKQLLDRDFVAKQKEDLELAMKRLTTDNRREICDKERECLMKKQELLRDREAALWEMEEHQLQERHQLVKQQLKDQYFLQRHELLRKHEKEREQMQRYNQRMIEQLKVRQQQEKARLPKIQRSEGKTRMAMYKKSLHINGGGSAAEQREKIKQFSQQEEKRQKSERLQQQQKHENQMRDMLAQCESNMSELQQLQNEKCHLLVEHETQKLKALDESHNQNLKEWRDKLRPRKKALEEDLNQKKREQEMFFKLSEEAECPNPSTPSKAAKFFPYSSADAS
Procedure: as §1

FAK = molecular target: T23, FAK (Homo sapiens, UniProt Q05397)
T23 construct: purchased Millipore, Inc. (KinaseProfiler service)
Procedure: as §1

CK1delta = molecular target: T24, CK1delta (Homo sapiens, UniProt P48730)
T24 construct: purchased Millipore, Inc. (KinaseProfiler service)
Procedure: as §1

DAPK3 = molecular target: T25, DAPK3 (Homo sapiens, UniProt O43293)
T25 construct: purchased Millipore, Inc. (KinaseProfiler service)
Procedure: as §1

EphB4 = molecular target: T26, EphB4 (Homo sapiens, UniProt P54760)
T26 construct: purchased Millipore, Inc. (KinaseProfiler service)
Procedure: as §1

CAMK2d = molecular target: T27, CAMK2d (Homo sapiens, UniProt Q13557)
T27 construct: purchased Millipore, Inc. (KinaseProfiler service)
Procedure: as §1

MRCKbeta = molecular target: T28, MRCKbeta (Homo sapiens, UniProt Q9Y5S2)
T28 construct: purchased Millipore, Inc. (KinaseProfiler service)
Procedure: as §1

Rsk3 = molecular target: T29, Rsk3 (Homo sapiens, UniProt Q15349)
T29 construct: purchased Millipore, Inc. (KinaseProfiler service)
Procedure: as §1

JNK3 = molecular target: T30, JNK3 (Homo sapiens, UniProt P53779)
T30 construct: purchased Millipore, Inc. (KinaseProfiler service)
Procedure: as §1

MAP4K2 = molecular target: T31, MAP4K2 (Homo sapiens, UniProt Q12851)
T31 construct: purchased Millipore, Inc. (KinaseProfiler service)
T31 sequence (Q12851 whole entry): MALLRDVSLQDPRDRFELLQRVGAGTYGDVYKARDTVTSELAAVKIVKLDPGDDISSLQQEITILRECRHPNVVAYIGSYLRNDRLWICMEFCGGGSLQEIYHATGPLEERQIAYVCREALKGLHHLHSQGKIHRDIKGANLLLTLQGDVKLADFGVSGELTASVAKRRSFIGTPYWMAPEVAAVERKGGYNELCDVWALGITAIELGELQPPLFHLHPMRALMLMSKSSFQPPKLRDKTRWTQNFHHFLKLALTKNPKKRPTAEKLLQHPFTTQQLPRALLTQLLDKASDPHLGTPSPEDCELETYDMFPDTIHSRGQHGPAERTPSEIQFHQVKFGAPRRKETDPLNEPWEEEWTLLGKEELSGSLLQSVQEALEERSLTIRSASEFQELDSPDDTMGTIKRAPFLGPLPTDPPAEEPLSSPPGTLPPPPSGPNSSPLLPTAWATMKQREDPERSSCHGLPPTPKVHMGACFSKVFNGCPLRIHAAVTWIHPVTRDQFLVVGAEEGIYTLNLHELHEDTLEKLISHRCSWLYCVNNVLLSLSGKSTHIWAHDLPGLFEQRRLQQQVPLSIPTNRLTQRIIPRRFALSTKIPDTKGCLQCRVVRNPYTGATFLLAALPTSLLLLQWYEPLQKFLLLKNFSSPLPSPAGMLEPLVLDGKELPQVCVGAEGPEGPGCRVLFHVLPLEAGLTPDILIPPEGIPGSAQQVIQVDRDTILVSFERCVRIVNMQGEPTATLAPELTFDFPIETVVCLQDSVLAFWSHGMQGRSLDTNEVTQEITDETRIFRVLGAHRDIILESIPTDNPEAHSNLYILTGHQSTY
Procedure: as §1

CDK3/cyclinE = molecular target: T32, CDK3/cyclinE (Homo sapiens, UniProt Q00526)
T32 construct: purchased Millipore, Inc. (KinaseProfiler service)
Procedure: as §1

CAMK4 = molecular target: T33, CAMK4 (Homo sapiens, UniProt Q16566)
T33 construct: purchased Millipore, Inc. (KinaseProfiler service)
Procedure: as §1

MSK1 = molecular target: T34, MSK1 (Homo sapiens, UniProt O75582)
T34 construct: purchased Millipore, Inc. (KinaseProfiler service)
Procedure: as §1

MST1 = molecular target: T35, MST1 (Homo sapiens, UniProt Q13043)
T35 construct: purchased Millipore, Inc. (KinaseProfiler service)
Procedure: as §1

c-RAF = molecular target: T36, c-RAF (Homo sapiens, UniProt P04049)
T36 construct: purchased Millipore, Inc. (KinaseProfiler service)
Procedure: as §1

Flt1 = molecular target: T37, Flt1 (Homo sapiens, UniProt P17948)
T37 construct: purchased Millipore, Inc. (KinaseProfiler service)
Procedure: as §1

EphA4 = molecular target: T38, EphA4 (Homo sapiens, UniProt P54764)
T38 construct: purchased Millipore, Inc. (KinaseProfiler service)
Procedure: as §1

CLK2 = molecular target: T39, CLK2 (Homo sapiens, UniProt P49760)
T39 construct: purchased Millipore, Inc. (KinaseProfiler service)
Procedure: as §1

Hck = molecular target: T40, Hck (Homo sapiens, UniProt P08631)
T40 construct: purchased Millipore, Inc. (KinaseProfiler service)
Procedure: as §1

Avg POC (Flt3): 102 POC
Avg POC (IKKalpha): 101.5 POC
Avg POC (CAMK2b): 147.5 POC
Avg POC (FGFR4): 105 POC
Avg POC (DDR2): 121.5 POC
Avg POC (WNK3): 115.5 POC
Avg POC (SIK): 108 POC
Avg POC (MST3): 103.5 POC
Avg POC (MST2): 102 POC
Avg POC (Tie2): 82 POC
Avg POC (CK1_y): 91.5 POC
Avg POC (MSSK1): 127.5 POC
Avg POC (Pim-1): 103.5 POC
Avg POC (MELK): 105.5 POC
Avg POC (IRAK4): 98 POC
Avg POC (p70S6K): 104 POC
Avg POC (Ron): 100 POC
Avg POC (TSSK1): 104 POC
Avg POC (PKCgamma): 98 POC
Avg POC (KIT): 97.5 POC
Avg POC (TNK2): 93.5 POC
Avg POC (AKT2): 104.5 POC
Avg POC (LOK): 125.5 POC
Avg POC (FAK): 100.5 POC
Avg POC (CK1delta): 104 POC
Avg POC (DAPK3): 105.5 POC
Avg POC (EphB4): 102 POC
Avg POC (CAMK2d): 97.5 POC
Avg POC (MRCKbeta): 106.5 POC
Avg POC (Rsk3): 107.5 POC
Avg POC (JNK3): 114.5 POC
Avg POC (MAP4K2): 101 POC
Avg POC (CDK3/cyclinE): 94.5 POC
Avg POC (CAMK4): 100 POC
Avg POC (MSK1): 129 POC
Avg POC (MST1): 107.5 POC
Avg POC (c-RAF): 101 POC
Avg POC (Flt1): 97 POC
Avg POC (EphA4): 98 POC
Avg POC (CLK2): 102 POC
Avg POC (Hck): 108.5 POC
SMILES: COCCN1C[C@@H](NC(=O)Nc2c(C)c(-c3cnc(C)nc3)nn2-c2ccccc2)[C@H](c2cccc(F)c2)C1 [Compound 1, 1-((3S,4R)-4-(3-fluorophenyl)-1-(2-methoxyethyl)pyrrolidin-3-yl)-3-(4-methyl-3-(2-methylpyrimidin-5-yl)-1-phenyl-1H-pyrazol-5-yl)urea]
